The results in this text go back to patent US5434174A, “Isoxazole derivatives for the treatment of irritable bowel syndrome” (priority 1993, dated 1995).

One assay has as its target T1, 5HT1A receptors (Rattus norvegicus, UniProt P19327).
T1 construct: synaptosomal membranes isolated from cerebral cortex; from tissue; host or cells: rat cerebral cortex, crude synaptosomal membranes
T1 sequence (P19327 1-422): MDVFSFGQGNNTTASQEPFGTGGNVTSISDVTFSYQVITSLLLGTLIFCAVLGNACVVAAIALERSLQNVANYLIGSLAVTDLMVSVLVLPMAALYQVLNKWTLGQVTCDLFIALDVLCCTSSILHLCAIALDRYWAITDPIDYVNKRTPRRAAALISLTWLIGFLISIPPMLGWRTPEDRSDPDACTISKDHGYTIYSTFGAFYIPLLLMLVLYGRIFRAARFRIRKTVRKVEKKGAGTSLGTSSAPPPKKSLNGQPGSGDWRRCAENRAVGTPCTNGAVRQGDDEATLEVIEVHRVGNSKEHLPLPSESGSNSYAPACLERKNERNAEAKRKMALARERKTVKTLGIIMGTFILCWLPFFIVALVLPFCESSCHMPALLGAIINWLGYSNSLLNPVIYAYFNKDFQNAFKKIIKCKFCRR
The assay can be described thus: In vitro binding to 5HT1A receptors (inhibition of 3H-8-OH-DPAT binding, rat cerebral cortex synaptosomal membranes). Further details: species or system rat (male Sprague-Dawley). The text has this: Sites specifically labeled by tritiated 8-hydroxy-2-dipropylamino-1,2,3,4-tetrahydronaphthalene (^3 H-8-OH-DPAT) have been identified as 5-HT1A receptors. This general procedure is set forth in Wong et al., J. Neural Transm. 71: 207-218 (1988).
In vitro Binding Methods to 5HT1A Receptors
Male Sprague-Dawley rats (110-150 g) from Harlan Industries (Cumberland, Ind.) were fed Purina Chow ad libitum for at least 3 days before being used in the studies. Rats were killed by decapitation. The brains were rapidly removed, and the cerebral cortices were dissected out at 4° C.
Brain tissues were homogenized in 0.32M sucrose. After centrifugation at 1000× g for 10 min. and then at 17000× g for 20 min., a crude synaptosomal fraction was sedimented. The pellet was suspended in 100 vol. of 50 mM Tris-HCl, pH 7.4, incubated at 37° C. for 10 min., and centrifuged at 50000× g for 10 min. The process was repeated and the final pellet was suspended in ice-chilled 50 mM Tris-HCl, pH 7.4.
Binding of ^3 H-8-OH-DPAT was performed according to the previously described method [Wong et al., J. Neural Transm. 64: 251-269 (1985)]. Briefly, synaptosomal membranes isolated from cerebral cortex were incubated at 37° C. for 10 min. in 2 ml of 50 mM Tris-HCl, pH 7.4; […]; 0.6 mM ascorbic acid; 5 mM CaCl2; 2 nM 3H-8-OH-DPATand 0.1 to 1000 nm of the compound of interest. Binding was terminated by filtering samples under reduced pressure through glass fiber (GFB) filters. The filters were washed twice with 5 ml of ice cold buffer and placed in scintillation vials with 10 ml of PCS (Amersham/Searle) scintillation fluid. Radioactivity was measured with a liquid scintillation spectrometer. Unlabeled 8-OH-DPAT at […] was also included in separate samples to establish non-specific binding. Specific binding of ^3 H-8-OH-DPAT is defined as the difference of radioactivity bound in the absence and in the presence of 10 μM unlabeled 8-OH-DPAT.
(§1) The results in columns 6-8 are indicative of 5-HT1A agonist activity.

For assay [1], the target named is T2, muscarinic (M1) receptors (Rattus norvegicus, UniProt P08482).
T2 construct: Cerebral cortical membranes were prepared by differential centrifugation; from tissue; host or cells: rat cerebral cortex membranes
T2 sequence (P08482 1-460): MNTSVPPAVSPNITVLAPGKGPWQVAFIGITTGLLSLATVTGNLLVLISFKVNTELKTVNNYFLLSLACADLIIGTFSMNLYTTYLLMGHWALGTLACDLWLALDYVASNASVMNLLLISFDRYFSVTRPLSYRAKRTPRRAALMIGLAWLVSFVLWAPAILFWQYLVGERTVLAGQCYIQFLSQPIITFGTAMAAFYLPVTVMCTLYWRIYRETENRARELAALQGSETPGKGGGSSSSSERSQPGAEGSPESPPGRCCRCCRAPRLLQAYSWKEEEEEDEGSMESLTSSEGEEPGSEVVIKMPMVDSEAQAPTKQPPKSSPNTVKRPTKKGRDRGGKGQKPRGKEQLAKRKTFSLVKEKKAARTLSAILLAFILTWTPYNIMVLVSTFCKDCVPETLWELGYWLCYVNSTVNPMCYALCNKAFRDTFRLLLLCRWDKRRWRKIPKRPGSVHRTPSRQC
The assay can be described thus: In vitro [3H]-pirenzepine binding (muscarinic M1, rat cerebral cortical membranes). Further details: species or system rat (male Sprague-Dawley). The protocol:
In vitro Binding Methods for [3H]-pirenzepine Binding
For in vitro 3H-pirenzepine binding, male Sprague-Dawley (Harlan Sprague Dawley, Indianapolis, Ind.) rats weighing 100-150 gm were sacrificed by decapitation, the brains were quickly removed, and the cerebral cortex was dissected from the brain. Cerebral cortical membranes were prepared by differential centrifugation, washed twice and frozen until used.
The inhibition of binding of 3H-pirenzepine to receptors was determined by adding study drug, 1 nM 3H-pirenzepine (87.0 Ci/mmol, New England Nuclear, Boston, Mass.), and about 100 ug cerebral cortical membranes in 1 ml total volume of 20 mM tris-Cl buffer, pH 7.4, containing 1 mM MnCl2. After incubation for 1 hour at 25° C., the homogenates were filtered through glass filters (Whatman, GF/c) with vacuum, the filters were washed 3 times with 2 ml cold buffer, and placed in scintillation vials containing 10 ml scintillation fluid (Ready Protein +, Beckman, Fullerton, Calif.).
Radioactivity trapped on the filters was determined by liquid, scintillation spectrometry. Nonspecific binding was determined using 1 uM atropine.
(§2) Table II summarizes the effect of typical formula I compounds on muscarinic (M1) receptors.

For assay [2], the system named is pylorus ligated rats (gastric acid secretion). In kind it is in vivo, rat (male Sprague-Dawley). As to conditions: 2 h. The protocol:
Gastric acid inhibition was determined in pylorus ligated rats following the procedure by Shay (Shay, H., Komarov, A. A. and Greenstein, M: Effects of vagotomy in the rat, Arch. Surg. 59: 210-226, 1949). Male Sprague-Dawley rats weighing approximately 200 gm were starved 24 hours prior to using. Water was provided ad libitrim. Under light ether anesthesia the pylorus was ligated and simultaneously the rats were dosed with the compound either i.p. or s.c. and the rats were allowed to recover from anesthetic. Acid was accumulated for 2 hours. At the end of this period, rats were killed. Stomach contents were removed, measured and titrated to a pH endpoint of 7.0.
as §1

The test system of the next assay is brain 5-HIAA levels. In words: In vivo lowering of brain 5-HIAA levels. As to conditions: Rattus norvegicus, 1 h, minimum effective dose lowering brain 5-HIAA, one hour after treatment, read-out: 5-HIAA MED. Further details: species or system rat (male Sprague-Dawley). The protocol:
(§3) In vivo Methods to Show 5HT1A Activity
(§4) Compounds of this invention were also examined for their in vivo effects on brain 5-HIAA and serum corticosterone levels. Male Sprague-Dawley rats weighing 150-200 g were administered subcutaneously or orally with aqueous solutions of the test compound. One hour after treatment, the rats were decapitated and trunk blood collected. The blood was allowed to clot and then was centrifuged to separate the serum. The concentration of corticosterone in the serum was determined by the spectrofluorometric method of Solem, J. H.; Brinck-Johnsen, T., Scand. J. Clin. Invest, [Suppl. 80], 17, 1 (1965). The whole brains from the decapitated rats were quickly removed, frozen on dry ice, and stored at -15° C. 5-HIAA concentrations were measured by liquid chromatography with electrochemical detection as described by Fuller, R. W.; Snoddy, H. D.; Perry, K. W., Life Sci. 40, 1921 (1987).
as §1

Assay [3] concerns serum corticosterone levels. In words: In vivo elevation of serum corticosterone levels. Further details: species or system rat (male Sprague-Dawley). As to conditions: Rattus norvegicus, sc, 1 h, read-out: Corticosterone MED. How it is done: as §3, §4, §1
Assay [4] has as its system rat colon (carbachol-induced contraction). The assay can be described thus: Reversal of carbachol-induced hypertone (contraction of rat colon strips in vitro). Further details: species or system rat (male Sprague-Dawley). The note with it: colonic smooth muscle in vitro, read-out: Blockade of carbachol-induced contraction of rat colon (IC50). How it is done:
Reversal of Carbachol-Induced Hypertone
Male Spraque-Dawley rats weighing 300-350 gm were starved for 24 hours. The rats were brought to the lab and decapitated and colons were removed immediately. Fecal content was washed and longitudinal strips 4 cm long were placed in organ baths under 1 gm tension using Grass FT03 transducers. Tissues were allowed to equilibrate and were gassed with 95% oxygen and 5% carbon dioxide. The tissues were then contracted with carbachol to produce a tonic response. Then the drug solutions were added to see relaxation. Percent relaxation was calculated from the pre-treatment control period. For many compounds more than one concentration of the drug was tested. In these situations an IC50 was calculated, which is the dose which inhibited carbachol induced response by 50%.
as §2

[5] abbreviates: inhibition of 3H-8-OH-DPAT binding, rat cerebral cortex, read-out: Radioligand binding data (IC50, nM) 5-HT1a.
The mark [6] stands for this setting: inhibition of 3H-pirenzepine binding, rat cerebral cortical membranes, read-out: Radioligand binding data (IC50, nM) M1.

Counter-ions that a name gives are not always drawn. Like-named read-outs stand apart in the source and are kept apart here.

In general, IC50 refers to the midpoint of a concentration-inhibition curve.

Consider `CCCN(CCC)C1CCc2cccc(-c3cc(-c4ccccc4)no3)c2C1` (centres unmarked) [Example 6, 2-(Di-n-propylamino)-8-(3-phenylisoxazol-5-yl)-1,2,3,4-tetrahydronaphthalene hydrobromide], for which the IC50 was 72 nM on 5HT1A receptors (setting [5]) and 750 nM in assay [1] (setting [6]).

On to `CCCN(CCC)C1CCc2cccc(-c3cc(C)no3)c2C1.O=C(O)/C=C\C(=O)O` (centres unmarked) [Example 5, 2-(Di-n-propylamino)-8-(3-methylisoxazol-5-yl)-1,2,3,4-tetrahydronaphthalene maleate], for which the IC50 is 1.3 nM on 5HT1A receptors (setting [5]) and 107 nM in assay [1]. Further, the “Gastric Acid Inhibition %” value in assay [2] is recorded as 95.8%. Further, the minimal effective dose was 1 mg/kg with brain 5-HIAA levels (sc) and greater than 1 mg/kg in assay [3].

`CCCN(CCC)C1CCc2cccc(-c3cc(SC)no3)c2C1` (centres unmarked) [Example 7, 2-(Di-n-propylamino)-8-(3-methylthioisoxazol-5-yl)-1,2,3,4-tetrahydronaphthalene maleate]: the IC50 is 1.2 nM on 5HT1A receptors and 173 nM in assay [1] (setting [6]). Besides, the “Gastric Acid Inhibition %” value in assay [2] worked out at 65.4%. Moreover, the minimal effective dose in the assay on brain 5-HIAA levels (sc) is greater than 1 mg/kg; in assay [3] (minimum effective dose elevating serum corticosterone, one hour after treatment) it was greater than 1 mg/kg.

For `CCCN(CCC)C1CCc2cccc(O)c2C1` (centres unmarked) [8-OH DPAT, 8-hydroxy-2-dipropylamino-1,2,3,4-tetrahydronaphthalene, reference compound], the “Gastric Acid Inhibition %” value in assay [2] amounted to 72.4%. Also, the values for the IC50 in assay [1] and in assay [4] were 1940 nM and 29800 nM, respectively.

Regarding `CCCN(CCC)C1CCc2cccc(-c3oncc3C)c2C1.O=C(O)/C=C\C(=O)O` (centres unmarked) [Example 3, 2-(Di-n-propylamino)-8-(4-methylisoxazol-5-yl)-1,2,3,4-tetrahydronaphthalene maleate], the figures for the IC50 (at 5HT1A receptors (setting [5]); in assay [1]) were 1.9 nM and 190 nM, respectively. In addition, the “Gastric Acid Inhibition %” value in assay [2] was 95.7%. Also, the minimal effective dose was greater than 10 mg/kg in the assay on brain 5-HIAA levels (po), 0.3 mg/kg with brain 5-HIAA levels (sc) and 1 mg/kg in assay [3].

As to `CCCN(CCC)[C@@H]1CCc2cccc(-c3ccno3)c2C1.O=C(O)/C=C\C(=O)O` [Example 10, R-(+)-8-(isoxazol-5-yl)-2-dipropylamino-1,2,3,4-tetrahydronaphthalene maleate], the figures for the IC50 (on 5HT1A receptors (setting [5]); in assay [1]; in assay [4]) were 1.4 nM, 150 nM and 9100 nM, respectively. In addition, the “Gastric Acid Inhibition %” value in assay [2] is on record as 47.1%. In addition, the minimal effective dose in the assay on brain 5-HIAA levels (po) is 10 mg/kg.

`CCCN(CCC)C1CCc2cccc(-c3ccno3)c2C1.O=C(O)/C=C\C(=O)O` (centres unmarked) [Example 1, 2-(Di-n-propylamino)-8-(isoxazol-5-yl)-1,2,3,4-tetrahydronaphthalene maleate]: the values for the IC50 (on 5HT1A receptors (setting [5]); in assay [4]) were 0.44 nM and 8100 nM, respectively. The “Gastric Acid Inhibition %” value in assay [2] came out at 69.6%. Moreover, the results for the minimal effective dose (in the assay on brain 5-HIAA levels (po); in the assay with brain 5-HIAA levels (sc); in assay [3]) were 3 mg/kg, 0.1 mg/kg and 0.3 mg/kg, respectively.

In the case of `CCCN(CCC)C1CCc2cccc(-c3cc(Br)no3)c2C1.O=C(O)/C=C\C(=O)O` (centres unmarked) [Example 2, 2-(Di-n-propylamino)-8-(3-bromoisoxazol-5-yl)-1,2,3,4-tetrahydronaphthalene maleate], the results for the IC50 (on 5HT1A receptors (setting [5]); in assay [1]; in assay [4]) were 2.5 nM, 220 nM and 4600 nM, respectively. Also, the minimal effective dose (in the assay with brain 5-HIAA levels (sc); in assay [3]) was greater than 1 mg/kg in each case.

With `CCCN(CCC)[C@H]1CCc2cccc(-c3ccno3)c2C1` [Example 9, S-(-)-8-(isoxazol-5-yl)-2-dipropylamino-1,2,3,4-tetrahydronaphthalene maleate], the IC50 came out at 0.2 nM on 5HT1A receptors, 180 nM in assay [1] (setting [6]) and 2500 nM in assay [4]. Also, in assay [2], the “Gastric Acid Inhibition %” value is 96.8%. Further, the minimal effective dose in the assay with brain 5-HIAA levels (po) is 3 mg/kg.

As to `Br.CCCN(CCC)C1CCc2cccc(-c3oncc3OC)c2C1` (centres unmarked) [Example 8, 2-(Di-n-propylamino)-8-(4-methoxyisoxazol-5-yl)-1,2,3,4-tetrahydronaphthalene hydrobromide], the IC50 at 5HT1A receptors (setting [5]) is 1.7 nM; in assay [1], 195 nM. In addition, the “Gastric Acid Inhibition %” value in assay [2] was 46.8%. Further, the minimal effective dose was 1 mg/kg in the assay with brain 5-HIAA levels (sc) and greater than 1 mg/kg in assay [3].
